Data as given in patent US8785655B2, “Ionic liquid solvents” (Dublin City University, priority 2009, dated 2014).

Experiments:
[1] = system: Staphylococcus aureus CCM 4516/08; test: Screen against bacteria, MIC/IC80; type: cell-based; details: SA
[2] = system: Candida parapsilosis ATCC 22019; test: In vitro antifungal activity, MIC by microdilution (NCCLS M27-A); details: CP
[3] = system: Enterococcus sp. J 14365/08; test: Screen against bacteria, MIC/IC80; type: cell-based; details: EF
Escherichia coli CCM4517 = test: Screen against bacteria, MIC/IC80; type: cell-based; details: EC
[4] = system: Candida lusitaniae 2446/l; test: In vitro antifungal activity, MIC by microdilution (NCCLS M27-A); details: CL
Method: (§1) In vitro antifungal activities of the compounds were evaluated on the collection of fungal strains deposited at the Department of Biological and Medical Sciences, Faculty of Pharmacy, Charles University, Czech Republic. All the isolates were maintained on Sabouraud dextrose agar prior to being tested.
(§2) Minimum inhibitory concentrations (MICs) were determined by the microdilution format of the NCCLS M27-A guidelines. […] RPMI 1640 (Sevapharma, Prague) medium supplemented with L-glutamine and buffered with 0.165 M morpholinepropanesulfonic acid to pH 7.0 was used as the test medium. The wells of the microdilution tray contained 100 μl of the RPMI 1640 medium with 2-fold serial dilutions of the compounds (1000 to 0.24 μmol/l for the new compounds) and 100 μl of inoculum suspension. Fungal inoculum in RPMI 1640 was prepared to give a final concentration of 5×103±0.2 cfu·ml-1. The trays were incubated at 35° C. and MICs were read visually for filamentous fungi and photometrically for yeasts as an optical density (OD) at 540 nm after 24 h and 48 h. The MICs were defined as 80% inhibition of the growth of control. MICs were determined twice and in duplicate. The deviations from the usually obtained were no higher than the nearest concentration value up and down the dilution scale.

[5] = system: Klebsiella pneumoniae J 14368/08 ESBL-positive; test: Screen against bacteria, MIC/IC80; type: cell-based; details: KP-E
Candida tropicalis 156 = test: In vitro antifungal activity, MIC by microdilution (NCCLS M27-A); details: CT
Candida krusei ATCC 6258 = test: as above
Method: as §1, §2

[6] = system: Candida albicans ATCC 44859; test: as above
[7] = system: Candida albicans ATCC 90028; test: as above
Method: as §1, §2

[8] = system: Pseudomonas aeruginosa CCM 1961; test: Screen against bacteria, MIC/IC80; type: cell-based; details: PA
[9] = system: Staphylococcus aureus H 5996/08 Methiciline-resistant; test: Screen against bacteria, MIC/IC80; type: cell-based; details: MRSA
[10] = system: Aspergillus fumigatus 231; test: In vitro antifungal activity, MIC by microdilution (NCCLS M27-A); details: AF
[11] = system: Staphylococcus epidermidis H 6966/08; test: Screen against bacteria, MIC/IC80; type: cell-based; details: SE
Absidia corymbifera 272 = test: In vitro antifungal activity, MIC by microdilution (NCCLS M27-A); details: AC
Method: as §1, §2

[12] = system: Klebsiella pneumoniae D 11750/08; test: Screen against bacteria, MIC/IC80; type: cell-based; details: KP
Candida glabrata 20/l = test: In vitro antifungal activity, MIC by microdilution (NCCLS M27-A); details: CG
Method: as §1, §2

Candida krusei E28 = test: as above
[13] = system: Trichophyton mentagrophytes 445; test: as above; details: TM

SMILES | MIC/IC80 ([1]; 24 h) [µM] | MIC/IC80 ([1]; 48 h) [µM] | MIC/IC80 ([2]; 24 h) [µM] | MIC/IC80 ([2]; 48 h) [µM] | MIC/IC80 ([3]; 24 h) [µM] | MIC/IC80 ([3]; 48 h) [µM] | MIC/IC80 (Escherichia coli CCM4517; 24 h) [µM] | MIC/IC80 (Escherichia coli CCM4517; 48 h) [µM] | MIC/IC80 ([4]; 24 h) [µM] | MIC/IC80 ([4]; 48 h) [µM] | MIC/IC80 ([5]; 24 h) [µM] | MIC/IC80 ([5]; 48 h) [µM] | MIC/IC80 (Candida tropicalis 156; 24 h) [µM] | MIC/IC80 (Candida tropicalis 156; 48 h) [µM] | MIC/IC80 (Candida krusei ATCC 6258; CK1, 24 h) [µM] | MIC/IC80 (Candida krusei ATCC 6258; CK1, 48 h) [µM] | MIC/IC80 ([6]; CA1, 24 h) [µM] | MIC/IC80 ([6]; CA1, 48 h) [µM] | MIC/IC80 ([7]; CA2, 24 h) [µM] | MIC/IC80 ([7]; CA2, 48 h) [µM] | also measured
CCOCCOC(=O)C(OC(=O)Cn1cc[n+](C)c1)c1ccccc1.[Br-] (centres unmarked) [KG818, RS-3-methyl-1-[1-(ethoxyethoxycarbonyl)-1-phenylmethoxycarbonylmethyl]imidazolium bromide] | >1000 | >1000 | >1000 | >1000 | >1000 | >1000 | >1000 | >1000 | >1000 | >1000 | >1000 | >1000 | >1000 | >1000 | >1000 | >1000 | >1000 | >1000 | >1000 | >1000 | MIC/IC80 ([8]; 24 h): >1000 µM; MIC/IC80 ([8]; 48 h): >1000 µM; MIC/IC80 ([9]; 24 h): >1000 µM; MIC/IC80 ([9]; 48 h): >1000 µM; MIC/IC80 ([10]; 24 h): >1000 µM; MIC/IC80 ([10]; 48 h): >1000 µM; MIC/IC80 ([11]; 24 h): >1000 µM; MIC/IC80 ([11]; 48 h): >1000 µM; MIC/IC80 (Absidia corymbifera 272; 24 h): >1000 µM; MIC/IC80 (Absidia corymbifera 272; 48 h): >1000 µM; MIC/IC80 ([12]; 24 h): >1000 µM; MIC/IC80 ([12]; 48 h): >1000 µM; MIC/IC80 (Candida glabrata 20/l; 24 h): >1000 µM; MIC/IC80 (Candida glabrata 20/l; 48 h): >1000 µM; MIC/IC80 (Candida krusei E28; CK2, 24 h): >1000 µM; MIC/IC80 (Candida krusei E28; CK2, 48 h): >1000 µM; MIC/IC80 ([13]; 72 h): >1000 µM; MIC/IC80 ([13]; 120 h): >1000 µM
CCCCCOC(=O)[C@@H](OC(=O)Cn1cc[n+](C)c1)c1ccccc1.[Br-] [KG824, S-3-methyl-1-[1-(pentoxycarbonyl)-1-phenylmethoxycarbonylmethyl]imidazolium bromide] | >1000 | >1000 | >1000 | >1000 | >1000 | >1000 | >1000 | >1000 | >1000 | >1000 | >1000 | >1000 | >1000 | >1000 | 1000 | >1000 | 500 | >1000 | 1000 | >1000 | MIC/IC80 ([8]; 24 h): >1000 µM; MIC/IC80 ([8]; 48 h): >1000 µM; MIC/IC80 ([9]; 24 h): >1000 µM; MIC/IC80 ([9]; 48 h): >1000 µM; MIC/IC80 ([10]; 24 h): 1000 µM; MIC/IC80 ([10]; 48 h): 1000 µM; MIC/IC80 ([11]; 24 h): >1000 µM; MIC/IC80 ([11]; 48 h): >1000 µM; MIC/IC80 (Absidia corymbifera 272; 24 h): 1000 µM; MIC/IC80 (Absidia corymbifera 272; 48 h): 1000 µM; MIC/IC80 ([12]; 24 h): >1000 µM; MIC/IC80 ([12]; 48 h): >1000 µM; MIC/IC80 (Candida glabrata 20/l; 24 h): 1000 µM; MIC/IC80 (Candida glabrata 20/l; 48 h): >1000 µM; MIC/IC80 (Candida krusei E28; CK2, 24 h): 1000 µM; MIC/IC80 (Candida krusei E28; CK2, 48 h): >1000 µM; MIC/IC80 ([13]; 72 h): 500 µM; MIC/IC80 ([13]; 120 h): 500 µM
CCOCCOC(=O)[C@@H](OC(=O)Cn1cc[n+](C)c1)c1ccccc1.[Br-] [KG826, S-3-methyl-1-[1-(ethoxyethoxycarbonyl)-1-phenylmethoxycarbonylmethyl]imidazolium bromide] | >1000 | >1000 | >1000 | >1000 | >1000 | >1000 | >1000 | >1000 | >1000 | >1000 | >1000 | >1000 | >1000 | >1000 | >1000 | >1000 | >1000 | >1000 | >1000 | >1000 | MIC/IC80 ([8]; 24 h): >1000 µM; MIC/IC80 ([8]; 48 h): >1000 µM; MIC/IC80 ([9]; 24 h): >1000 µM; MIC/IC80 ([9]; 48 h): >1000 µM; MIC/IC80 ([10]; 24 h): >1000 µM; MIC/IC80 ([10]; 48 h): >1000 µM; MIC/IC80 ([11]; 24 h): >1000 µM; MIC/IC80 ([11]; 48 h): >1000 µM; MIC/IC80 (Absidia corymbifera 272; 24 h): >1000 µM; MIC/IC80 (Absidia corymbifera 272; 48 h): >1000 µM; MIC/IC80 ([12]; 24 h): >1000 µM; MIC/IC80 ([12]; 48 h): >1000 µM; MIC/IC80 (Candida glabrata 20/l; 24 h): >1000 µM; MIC/IC80 (Candida glabrata 20/l; 48 h): >1000 µM; MIC/IC80 (Candida krusei E28; CK2, 24 h): >1000 µM; MIC/IC80 (Candida krusei E28; CK2, 48 h): >1000 µM; MIC/IC80 ([13]; 72 h): >1000 µM; MIC/IC80 ([13]; 120 h): >1000 µM
CCCCCOC(=O)[C@H](OC(=O)C[n+]1ccn(C)c1)c1ccccc1 [KG833, R-3-methyl-1-[1-(pentoxycarbonyl)-1-phenylmethoxycarbonylmethyl]imidazolium bromide] | 1000 | >1000 | >1000 | >1000 | >1000 | >1000 | >1000 | >1000 | >1000 | >1000 | >1000 | >1000 | 1000 | >1000 | 1000 | >1000 | 500 | >1000 | 1000 | >1000 | MIC/IC80 ([8]; 24 h): >1000 µM; MIC/IC80 ([8]; 48 h): >1000 µM; MIC/IC80 ([9]; 24 h): >1000 µM; MIC/IC80 ([9]; 48 h): >1000 µM; MIC/IC80 ([10]; 24 h): 1000 µM; MIC/IC80 ([10]; 48 h): 1000 µM; MIC/IC80 ([11]; 24 h): >1000 µM; MIC/IC80 ([11]; 48 h): >1000 µM; MIC/IC80 (Absidia corymbifera 272; 24 h): 1000 µM; MIC/IC80 (Absidia corymbifera 272; 48 h): 1000 µM; MIC/IC80 ([12]; 24 h): >1000 µM; MIC/IC80 ([12]; 48 h): >1000 µM; MIC/IC80 (Candida glabrata 20/l; 24 h): 1000 µM; MIC/IC80 (Candida glabrata 20/l; 48 h): >1000 µM; MIC/IC80 (Candida krusei E28; CK2, 24 h): 1000 µM; MIC/IC80 (Candida krusei E28; CK2, 48 h): >1000 µM; MIC/IC80 ([13]; 72 h): 500 µM; MIC/IC80 ([13]; 120 h): 500 µM
